Experiment [1] deals with EV71. The class given is cell-based, enterovirus 71. Particulars: RD cells, EV71 0.1 MOI, 24 h; for IC50: read-out: IC50 against EV71 by CCK8 method; for Virus inhibition rate (%): CCK-8. On the procedure: • (1) 293T cells were plated in a 24-well cell plate. • (2) After the cells reached 70%-80% confluence, the MEM medium containing 10% serum was replaced with a MEM medium containing 2% serum (0.5 ml/well), and 5 μl of 10^6 PFU/mL EV71 virus per well was added. • (3) After 1 hour, polypeptides P2, 3A-TAT-EP, 3A-EP-DRI and 3A-EP-PEG-PA were added at a final concentration of 0.01 μM, 0.1 μM, 1 μM, and 10 μM, respectively. • (4) Samples were collected 24 hours after virus infection, and RNA was extracted with a total RNA extraction kit. • (5) The supernatant in each well was discarded, then 350 μl of TRK Lysis Buffer was added to the well and the plate was shaken on the shaker for 5 minutes. • (6) 350 μl of 70% ethanol (DEPC-treated) was added to the well and the plate was shaken on the shaker for 5 minutes. • (7) The mixture in the well was transferred to a RNA extraction column and centrifuged at 12000 g for 1 min. • (8) The solution collected in the recovery tube was added back to the column and centrifuged at 12,000 g for 1 min. • (9) RNA washing buffer 1 was added to the column and centrifuged at 12,000 g for 30 s. • (10) RNA washing buffer 2 was added to the column and centrifuged at 12,000 g for 1 min. • (11) Step (10) was repeated once. • (12) The empty column was centrifuged at 12,000 g for 2 min to completely remove residual RNA washing buffer. • (13) 50 μl DEPC-treated water was added to the column and centrifuge at 12000 g for 2 min. • (14) 2 μl RNA sample was used according to one step qRT-PCR kit for fluorescence quantification experiment. 3. […] Each concentration was tested in triplicate. • (3) The diluted virus solution was added to the plate of step (1), 100 μL per well with the final virus concentration was 0.1 MOI. Wells without polypeptide and virus (well without treatment), wells with virus only were used as controls. • (4) The mixture of step (2) was added to the 96-well plate plated with cells in step (1) and incubated in 5% CO2 at 37° C. for 24 h. Then CCK8 kit was used to determine the inhibitory effect of the polypeptide on virus. • (5) The inhibition rate of different concentrations of polypeptides on viral infection was calculated using the following formula: OD means the value of OD450-OD630, inhibition rate=(OD well with treatment−OD well with virus only)×100%/(OD well without treatment−OD well with virus only)
• (1) RD cells in good growth state were plated in a 96-well plate. • (2) After the cells reached 70%-80% confluence, the MEM medium containing 10% serum was replaced with a MEM medium containing 2% serum. Group without polypeptide and virus, and group with virus but without polypeptide were included as controls. The final virus concentration was 0.1 MOI. • (3) 1 h later, polypeptide CR at a final concentration of 5 μM, 2.5 μM, 1.25 μM, 0.625 μM, 0.3125 μM, and 0.15625 μM was added, respectively. Group without polypeptide and virus, and group with virus but without polypeptide were set as controls. • (4) 24 hours after virus infection, when the change in the control group with only virus was obvious, 10 μl of viable cell detection agent CCK-8 was added to each well and mixed well. • (5) The plate was incubated at 37° C. for 2 h. • (6) The absorbance value at OD450 was measured with a microplate reader. Inhibition rate of polypeptide=(OD well with treatment−OD well with virus only)×100%/(OD well without treatment−OD well with virus only), OD refers to the value of OD450-OD630.
• (1) RD cells in good growth state were plated in a 96-well plate. • (2) After the cells reached 70%-80% confluence, the MEM medium containing 10% serum was replaced with a MEM medium containing 2% serum. Group without polypeptide and virus, and group with virus but without polypeptide were included as controls. The final virus concentration was 0.1 MOI. • (3) 1 h later, polypeptide CR at a final concentration of 2.5 μM, 1.25 μM, 0.625 μM, 0.3125 μM, and 0.15625 μM was added, respectively. […]

In experiment [2] the test system is EV71. The experiment in a line: Anti-EV71 efficiency in 293T cells, viral RNA by qRT-PCR. The class given is cell-based, enterovirus 71. The following applies: for antiviral effect of P2 variants as EV71 inhibitor, in words: FIG. 5, 293T cells, compared with P2. On the procedure: • (1) 293T cells, Vero cells and Huh7.5 cells were plated in 24-well plates respectively. • (2) After the cells reached 70%-80% confluence, the MEM medium containing 10% serum was replaced with a MEM medium containing 2% serum (0.5 ml/well), and 5 μl of 10^6 PFU/mL EV71 virus per well was added. • (3) After 1 h, polypeptide P2 was added to different cells at a final concentration of 0.01 μM, 0.1 μM, 1 μM, 10 μM, and 50 μM, respectively. • (4) Samples were collected 24 hours after virus infection, and RNA was extracted with a total RNA extraction kit as follows. • (5) The supernatant in each well was discarded, then 350 μl of TRK Lysis Buffer was added to the well and the plate was shaken on the shaker for 5 minutes. • (6) 350 μl of 70% ethanol (DEPC-treated) was added to the well and the plate was shaken on the shaker for 5 minutes. • (7) The mixture in the well was transferred to a RNA extraction column and centrifuged at 12,000 g for 1 min. • (8) The solution collected in the recovery tube was added back to the column and centrifuged at 12,000 g for 1 min. • (9) RNA washing buffer 1 was added to the column and centrifuged at 12,000 g for 30 s. • (10) RNA washing buffer 2 was added to the column and centrifuged at 12,000 g for 1 min. • (11) Step (10) was repeated once. • (12) The empty column was centrifuged at 12,000 g for 2 min to completely remove residual RNA washing buffer. • (13) 50 μl DEPC-treated H2O was added to the column and centrifuge at 12,000 g for 2 min. • (14) 2 μl RNA sample was used according to one step qRT-PCR kit for fluorescence quantification experiment. […]

Values joined by “and” are separate entries in the source; they are usually repeats but may differ in a detail not shown here. Identical values can stand only once. Like-named read-outs stand apart in the source and are kept apart here. Non-standard residues stand in square brackets, D forms with d. Residues, ends and D or L forms follow the SMILES beside them. No end group written: not given here.

Turning to `CC[C@@H](C)[C@@H](NC(=O)[C@H]1CCCN1C(C)=O)C(=O)N[C@@H](C(=O)N[C@H](Cc1c[nH]c2ccccc12)C(=O)NCC(=O)N[C@H](CCC(N)=O)C(=O)N[C@H](CCC(=O)O)C(=O)N[C@H](CCCNC(=N)N)C(=O)N[C@H](CS)C(=O)N[C@H](Cc1ccc(O)cc1)C(=O)N[C@H](CCC(N)=O)C(=O)N[C@H](CCCNC(=N)N)C(=O)N[C@@H](C(=O)N[C@H](CCC(=O)O)C(=O)N[C@H](CCC(=O)O)C(=O)N1CCC[C@@H]1C(=O)N1CCC[C@@H]1C(=O)N[C@H](CCCNC(=N)N)C(=O)N[C@H](CCCNC(=N)N)C(=O)N[C@H](CCCNC(=N)N)C(=O)N[C@H](CCC(N)=O)C(=O)N[C@H](CCCNC(=N)N)C(=O)N[C@H](CCCNC(=N)N)C(=O)N[C@H](CCCCN)C(=O)N[C@H](CCCCN)C(=O)N[C@H](CCCNC(=N)N)C(=O)NCC(=O)N[C@H](Cc1ccc(O)cc1)C(N)=O)C(C)C)[C@H](C)CC` [3A-EP-DRI], in experiment [1], the IC50 came to 3560 nM. The “antiviral effect of P2 variants as EV71 inhibitor, in words” value in experiment [2] was “improved antiviral effect”.
In the case of `CCCCCCCCCCCCCCCC(=O)NCCCC[C@H](NC(=O)CCOCCOCCOCCOCCNC(=O)[C@H](CCCCN)NC(=O)[C@H](C)NC(=O)[C@@H]1CCCN1C(=O)[C@@H](NC(=O)[C@@H](NC(=O)[C@H](Cc1c[nH]c2ccccc12)NC(=O)CNC(=O)[C@H](CCC(N)=O)NC(=O)[C@H](CCC(=O)O)NC(=O)[C@H](CCCNC(=N)N)NC(=O)[C@H](CS)NC(=O)[C@H](Cc1ccc(O)cc1)NC(=O)[C@H](CCC(N)=O)NC(=O)[C@H](CCCNC(=N)N)NC(=O)[C@@H](NC(=O)[C@H](CCC(=O)O)NC(=O)[C@@H](N)CCC(=O)O)C(C)C)[C@@H](C)CC)[C@@H](C)CC)C(=O)O` [3A-EP-PEG4-PA], in experiment [2], the “antiviral effect of P2 variants as EV71 inhibitor, in words” value was “improved antiviral effect”.
As to `CC(=O)N[C@H](CCCNC(=N)N)C(=O)N[C@H](CS)C(=O)N[C@H](Cc1ccc(O)cc1)C(=O)N[C@H](CCC(N)=O)C(=O)N[C@H](CCCNC(=N)N)C(=O)N[C@@H](C(=O)N[C@H](CCC(=O)O)C(=O)N[C@H](CCC(=O)O)C(=O)N1CCC[C@@H]1C(=O)N1CCC[C@@H]1C(=O)N[C@H](CCCNC(=N)N)C(=O)N[C@H](CCCNC(=N)N)C(=O)N[C@H](CCCNC(=N)N)C(=O)N[C@H](CCC(N)=O)C(=O)N[C@H](CCCNC(=N)N)C(=O)N[C@H](CCCNC(=N)N)C(=O)N[C@H](CCCCN)C(=O)N[C@H](CCCCN)C(=O)N[C@H](CCCNC(=N)N)C(=O)NCC(=O)N[C@H](Cc1ccc(O)cc1)C(N)=O)C(C)C` [ER-DRI] (Ac-[dR][dC][dY][dQ][dR][dV][dE][dE][dP][dP][dR][dR][dR][dQ][dR][dR][dK][dK][dR]G[dY]-NH2), the “Virus inhibition rate (%)” value is 37.8% and 40.47% and 37.95% in experiment [1] (0.625 μM); 75.85% and 72.43% and 77.52% in experiment [1] (1.25 μM); 78.68% and 85.29% and 79.76% in experiment [1] (2.5 μM). Further, the IC50 in experiment [1] was determined as 640 nM.
For the compound RRRRRRRREEVRQYCRDQ [P2], the IC50 in experiment [2] (293T cells, read-out: IC50 against EV71 by qRT-PCR) is 9680 nM.
For YGRKKRRQRRRGSGEEVRQYCR [ER], the IC50 in experiment [1] is 1260 nM.

What is called IC50 is the concentration that gives 50% inhibition.
